{"source": "paper PMC10287555", "about": "“Camonsertib in DNA damage response-deficient advanced solid tumors: phase 1 trial results” (Nature Medicine, 2023)", "key": {"[1]": {"experiment": "Treatment-emergent adverse events (TEAEs), TRESR", "assay_type": "in vivo, human", "procedure": "(§1) Tolerability and safety of camonsertib was evaluated by assessment of AEs, TEAEs, serious adverse events (SAEs), DLTs, concomitant medications and procedures, physical examinations, vital sign measurements, clinical safety laboratory evaluations (hematology, chemistry and urinalysis), ECOG performance status scores and electrocardiograms.\nAll safety and efficacy endpoints were summarized with descriptive statistics. Safety data were summarized using the safety population, which consisted of all patients who received at least one dose of RP-3500. The DLT rate was based on the DLT-evaluable population, which included those patients in dose-escalation cohorts (M1a and M1b only) receiving ≥80% of planned doses of camonsertib, who completed all required safety evaluations and were observed through the end of cycle 1 or patients who experienced a DLT. Due to the different number of dose levels expected and the exploratory nature of the phase 1 study, anti-tumor activity parameters were primarily based on patients who received ≥1 dose of RP-3500 and had ≥1 post-baseline tumor assessment by RECIST 1.1 and/or GCIG CA-125 or PCWG3 PSA criteria, with an initial dose level of >100 mg d^−1 (dose level predicted to achieve efficacious exposure), as defined in the statistical analysis plan. Additional subgroups based on tumor types or genotypes of interest were based on this efficacy analysis set. […] Patients were, therefore, enrolled in the study and endpoints assessed regardless of sex, gender and race. No formal statistical tests were performed in this study. However, nominal P values (two-sided) were provided for the hypothesis-generating purpose of selected exploratory endpoints, without adjusting for multiplicity. A log-rank test was used in between-group comparisons for the time-to-event endpoints (PFS and DOT), and Fisher’s exact test was used in between-group comparisons for the binary endpoints (CBR, MR, etc.)."}, "Effect on QT interval": {"experiment": "Effect on QT interval", "set-up": "species or system human", "details": "in vivo", "procedure": "as §1"}, "[2]": {"details": "3/4 schedule (n = 95), all grades"}, "[3]": {"details": "3/4 schedule (n = 95), grade 3+"}, "[4]": {"details": "5/2 schedule (n = 25), all grades"}, "[5]": {"details": "5/2 schedule (n = 25), grade 3+"}}, "note": "“Also recorded” adds a separate entry of the source."}
{"molecule": "C[C@@H]1COCCN1c1cc([C@]2(O)C[C@H]3CC[C@@H](C2)O3)c2cnn(-c3cc[nH]n3)c2n1", "note": "[camonsertib]", "values": [{"measurement": "Any TEAE", "setting": "[1]; [2]", "result": "92 (96.8) n (%)"}, {"measurement": "TEAE: Abdominal pain", "setting": "[1]; [2]", "result": "15 (15.8) n (%)"}, {"measurement": "TEAE: Anemia", "setting": "[1]; [2]", "result": "63 (66.3) n (%)"}, {"measurement": "TEAE: Blood creatinine increased", "setting": "[1]; [2]", "result": "8 (8.4) n (%)"}, {"measurement": "TEAE: Constipation", "setting": "[1]; [2]", "result": "13 (13.7) n (%)"}, {"measurement": "TEAE: Decreased appetite", "setting": "[1]; [2]", "result": "21 (22.1) n (%)"}, {"measurement": "TEAE: Diarrhea", "setting": "[1]; [2]", "result": "20 (21.1) n (%)"}, {"measurement": "TEAE: Dizziness", "setting": "[1]; [2]", "result": "11 (11.6) n (%)"}, {"measurement": "TEAE: Dyspnea", "setting": "[1]; [2]", "result": "18 (18.9) n (%)"}, {"measurement": "TEAE: Fatigue", "setting": "[1]; [2]", "result": "34 (35.8) n (%)"}, {"measurement": "TEAE: Nausea", "setting": "[1]; [2]", "result": "31 (32.6) n (%)"}, {"measurement": "TEAE: Neutrophil count decreased/neutropenia", "setting": "[1]; [2]", "result": "27 (28.4) n (%)"}, {"measurement": "TEAE: Platelet count decreased/ thrombocytopenia", "setting": "[1]; [2]", "result": "25 (26.3) n (%)"}, {"measurement": "TEAE: Vomiting", "setting": "[1]; [2]", "result": "16 (16.8) n (%)"}, {"measurement": "TEAE: White blood cell count decreased", "setting": "[1]; [2]", "result": "11 (11.6) n (%)"}, {"measurement": "Any TEAE", "setting": "[1]; [3]", "result": "51 (53.7) n (%)"}, {"measurement": "TEAE: Abdominal pain", "setting": "[1]; [3]", "result": "0 n (%)"}, {"measurement": "TEAE: Anemia", "setting": "[1]; [3]", "result": "28 (29.5) n (%)"}, {"measurement": "TEAE: Blood creatinine increased", "setting": "[1]; [3]", "result": "0 n (%)"}, {"measurement": "TEAE: Constipation", "setting": "[1]; [3]", "result": "0 n (%)"}, {"measurement": "TEAE: Decreased appetite", "setting": "[1]; [3]", "result": "0 n (%)"}, {"measurement": "TEAE: Diarrhea", "setting": "[1]; [3]", "result": "0 n (%)"}, {"measurement": "TEAE: Dizziness", "setting": "[1]; [3]", "result": "0 n (%)"}, {"measurement": "TEAE: Dyspnea", "setting": "[1]; [3]", "result": "2 (2.1) n (%)"}, {"measurement": "TEAE: Fatigue", "setting": "[1]; [3]", "result": "2 (2.1) n (%)"}, {"measurement": "TEAE: Nausea", "setting": "[1]; [3]", "result": "3 (3.2) n (%)"}, {"measurement": "TEAE: Neutrophil count decreased/neutropenia", "setting": "[1]; [3]", "result": "13 (13.7) n (%)"}, {"measurement": "TEAE: Platelet count decreased/ thrombocytopenia", "setting": "[1]; [3]", "result": "8 (8.4) n (%)"}, {"measurement": "TEAE: Vomiting", "setting": "[1]; [3]", "result": "3 (3.2) n (%)"}, {"measurement": "TEAE: White blood cell count decreased", "setting": "[1]; [3]", "result": "4 (4.2) n (%)"}, {"measurement": "Any TEAE", "setting": "[1]; [4]", "result": "25 (100.0) n (%)"}, {"measurement": "TEAE: Abdominal pain", "setting": "[1]; [4]", "result": "3 (12.0) n (%)"}, {"measurement": "TEAE: Anemia", "setting": "[1]; [4]", "result": "21 (84.0) n (%)"}, {"measurement": "TEAE: Blood creatinine increased", "setting": "[1]; [4]", "result": "4 (16.0) n (%)"}, {"measurement": "TEAE: Constipation", "setting": "[1]; [4]", "result": "5 (20.0) n (%)"}, {"measurement": "TEAE: Decreased appetite", "setting": "[1]; [4]", "result": "6 (24.0) n (%)"}, {"measurement": "TEAE: Diarrhea", "setting": "[1]; [4]", "result": "3 (12.0) n (%)"}, {"measurement": "TEAE: Dizziness", "setting": "[1]; [4]", "result": "2 (8.0) n (%)"}, {"measurement": "TEAE: Dyspnea", "setting": "[1]; [4]", "result": "8 (32.0) n (%)"}, {"measurement": "TEAE: Fatigue", "setting": "[1]; [4]", "result": "10 (40.0) n (%)"}, {"measurement": "TEAE: Nausea", "setting": "[1]; [4]", "result": "8 (32.0) n (%)"}, {"measurement": "TEAE: Neutrophil count decreased/neutropenia", "setting": "[1]; [4]", "result": "6 (24.0) n (%)"}, {"measurement": "TEAE: Platelet count decreased/ thrombocytopenia", "setting": "[1]; [4]", "result": "8 (32.0) n (%)"}, {"measurement": "TEAE: Vomiting", "setting": "[1]; [4]", "result": "4 (16.0) n (%)"}, {"measurement": "TEAE: White blood cell count decreased", "setting": "[1]; [4]", "result": "3 (12.0) n (%)"}, {"measurement": "Any TEAE", "setting": "[1]; [5]", "result": "19 (76.0) n (%)"}, {"measurement": "TEAE: Abdominal pain", "setting": "[1]; [5]", "result": "0 n (%)"}, {"measurement": "TEAE: Anemia", "setting": "[1]; [5]", "result": "14 (56.0) n (%)"}, {"measurement": "TEAE: Blood creatinine increased", "setting": "[1]; [5]", "result": "0 n (%)"}, {"measurement": "TEAE: Constipation", "setting": "[1]; [5]", "result": "0 n (%)"}, {"measurement": "TEAE: Decreased appetite", "setting": "[1]; [5]", "result": "0 n (%)"}, {"measurement": "TEAE: Diarrhea", "setting": "[1]; [5]", "result": "0 n (%)"}, {"measurement": "TEAE: Dizziness", "setting": "[1]; [5]", "result": "0 n (%)"}, {"measurement": "TEAE: Dyspnea", "setting": "[1]; [5]", "result": "0 n (%)"}, {"measurement": "TEAE: Fatigue", "setting": "[1]; [5]", "result": "1 (4.0) n (%)"}, {"measurement": "TEAE: Nausea", "setting": "[1]; [5]", "result": "0 n (%)"}, {"measurement": "TEAE: Neutrophil count decreased/neutropenia", "setting": "[1]; [5]", "result": "4 (16.0) n (%)"}, {"measurement": "TEAE: Platelet count decreased/ thrombocytopenia", "setting": "[1]; [5]", "result": "3 (12.0) n (%)"}, {"measurement": "TEAE: Vomiting", "setting": "[1]; [5]", "result": "0 n (%)"}, {"measurement": "TEAE: White blood cell count decreased", "setting": "[1]; [5]", "result": "0 n (%)"}, {"measurement": "Effect on QT interval (ΔQTcF)", "setting": "Effect on QT interval", "result": "No effect on QT interval was observed; also recorded: do not affect"}]}
